Laboratory results published in US20230219911A1, “BENZOTHIAZOLE DERIVATIVES AND USES THEREOF” (SHENYANG PHARMACEUTICAL UNIVERSITY, priority 2020, published 2023).
Read-outs that look alike come from different tables or passages of the source.

How the values were obtained:
[1] = biological target: T1, sEH enzyme (human recombinant) (Homo sapiens, UniProt P34913); experiment: in vitro IC50 of soluble epoxide hydrolase (sEH) by fluorescence analysis; type: biochemical
T1 construct: purchased Cayman Chemical
T1 sequence (P34913 1-555): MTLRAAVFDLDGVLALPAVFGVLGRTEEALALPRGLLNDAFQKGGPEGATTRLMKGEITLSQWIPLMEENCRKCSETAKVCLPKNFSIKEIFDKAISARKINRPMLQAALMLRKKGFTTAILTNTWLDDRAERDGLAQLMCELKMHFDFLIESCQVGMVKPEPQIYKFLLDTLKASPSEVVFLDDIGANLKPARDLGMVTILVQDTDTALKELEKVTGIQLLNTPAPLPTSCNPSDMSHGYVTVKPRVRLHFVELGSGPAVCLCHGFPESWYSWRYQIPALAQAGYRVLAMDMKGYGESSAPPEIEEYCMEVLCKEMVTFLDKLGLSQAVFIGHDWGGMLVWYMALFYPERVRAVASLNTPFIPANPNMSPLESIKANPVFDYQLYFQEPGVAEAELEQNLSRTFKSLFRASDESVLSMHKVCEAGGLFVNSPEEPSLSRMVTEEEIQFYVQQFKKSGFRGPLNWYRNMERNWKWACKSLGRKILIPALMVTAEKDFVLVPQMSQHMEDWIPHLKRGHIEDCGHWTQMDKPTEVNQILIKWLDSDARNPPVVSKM
Procedure: The benzothiazole skeleton compounds according to the above formula I of the present invention were tested for the in vitro sEH enzyme activity by fluorescence analysis. […] 12 μL of sEH enzyme (human recombinant, 0.5 mg/mL, Cayman Chemical) was diluted with 588 μL of buffer (25 mM bis-Tris, pH 7.0). […] The inhibitions at different concentrations for the compound were respectively measured in accordance with the inhibition assay, to calculate IC50.

[2] = biological target: T1, sEH enzyme (human recombinant); experiment: in vitro sEH enzyme activity by fluorescence analysis, single concentration inhibition; type: biochemical; conditions: read-out: sEH % inhibition, @ 0.1 μM
Procedure: The benzothiazole skeleton compounds (concentration: 0.1 μM) according to the above formula I of the present invention were tested for the in vitro sEH enzyme activity by fluorescence analysis.
12 μL of sEH enzyme (human recombinant, 0.5 mg/mL, Cayman Chemical) was diluted with 588 μL of buffer (25 mM bis-Tris, pH 7.0). The fluorescent substrate was PHOME (cyano-(6-methoxy-naphthalen-2-yl)-methyl (3-phenyl-oxiranyl)-acetate) in DMSO (10 μM, Cayman Chemical). The compound to be tested was dissolved in 100% DMSO at a concentration of 4 μM. 185 μL of buffer (25 mM bis-Tris, pH 7.0), 5 μL of compound solution, and 5 μL of diluted sEH enzyme were added to the wells of a 96-well plate, and finally 5 μL of substrate solution was added to initiate the reaction. After incubating at 37° C. for 15 min, the fluorescence signal was measured with a microplate reader (excitation wavelength 330 nm, emission wavelength 465 nm).
Inhibition (%)=(F0−F1)/(F0)×100.

[3] = test system: unilateral ureteral obstruction (UUO) C57BL/6J mice; experiment: Measurement of anti-fibrosis effect, unilateral ureteral obstruction (UUO) model; type: in vivo; conditions: intraperitoneal 30 mg·kg−1·d−1, 7 days after modeling
Procedure: Male C57BL/6J mice (6 to 8 weeks old) (SPF (Beijing) Biotechnology Co., Ltd.) were divided into 3 groups: sham group, unilateral ureteral obstruction (UUO) group, and UUO+Ex. 16 compound group. After the mice were anesthetized, the left ureter was ligated and cut to create a model. In the sham group, the ureter was only isolated without ligation. The experimental animals were administrated 72 hours before modeling, and the aqueous solution of Ex. 16 compound (10% PEG400, 10% Tween 80, concentration: 9 mg/mL) was intraperitoneally injected at a dose of 30 mg·kg^−1·d^−1; and the sham group and UUO group were intraperitoneally injected with an equal volume of blank solvent. 7 days after modeling, the animals were sacrificed, and samples were taken for testing.

[4] = test system: carrageenan-induced paw swelling in KM mice; experiment: Measurement of anti-inflammatory effect, carrageenan-induced paw swelling; type: in vivo; conditions: intraperitoneal injection 1 hour before carrageenan, FIG. 3
Procedure: 1 hour in advance, the mice were intraperitoneally injected with the solutions of the compounds of Examples 12, 18, 27, and 40 (10% PEG 400, 10% Tween 80) or the blank solvent, respectively. Taking the initial paw thickness of the mice before modeling as 100%, the changes in the paw thickness of the mice were measured.

[5] = test system: streptozotocin STZ diabetic model Balb/c mice; experiment: Measurement of hypoglycemic effect, streptozotocin diabetic model; type: in vivo; conditions: intraperitoneal once a day, after two weeks, FIG. 4
Procedure: Male Balb/c mice (6 to 8 weeks old) (SPF (Beijing) Biotechnology Co., Ltd.) were intraperitoneally injected with streptozotocin STZ (40 mg/kg) once a day for 5 consecutive days, to prepare a diabetic model (Like A A, Rossini A A. Streptozotocin-induced pancreatic insulitis: new model of diabetes mellitus. Science, 1976, 193(4251):415-7). The mice after modeling were intraperitoneally injected with the solution of compound of Example 12 once a day.

[6] = test system: lipopolysaccharide-injected KM mice, forced swimming test; experiment: Measurement of antidepressant effect, lipopolysaccharide / forced swimming test; type: in vivo; conditions: subcutaneous injection 23 hours after lipopolysaccharide, test 1 hour later, FIG. 7
Procedure: Male KM mice (6 to 8 weeks old) (SPF (Beijing) Biotechnology Co., Ltd.) swam in advance for 10 min, and were injected with lipopolysaccharide (0.5 mg/kg). After 23 hours, the mice were subcutaneously injected with the solutions of the compounds of Examples 12 and 40 or the blank solvent. After 1 hour, the mice were subjected to the forced swimming test for 6 min, and the immobility time (s) in later 4 minute for the mice in each group was recorded.

[7] = test system: traumatic brain injury model SD rats; experiment: Measurement of brain injury protection, traumatic brain injury model (modified Feeney method); type: in vivo
Procedure: 45 male SD rats (6 to 8 weeks old) (SPF (Beijing) Biotechnology Co., Ltd.) were divided into the sham group, blank solvent group, and dosing group. 72 hours after intraperitoneally injecting the compound of Example 12 or blank solvent, a traumatic brain injury model was established using the modified Feeney method (Marmarou A, Foda M A, van den Brink W, et al., A new model of diffuse brain injury in rats. Part I: Pathophysiology and biomechanics. Journal of Neurosurgry, 1994, 80(2):291 to 300.). 23 hours after model establishment, three […] in each group were injected with Evans blue solution through the tail vein, and after 1 hour of circulation, the mice were decapitated and the brain was taken out to determine the content of Evans blue (EB), so as to study the permeability. Another three rats were taken to measure the water content in brain.

[8] = test system: carrageenan inflammatory pain model SD rats; experiment: Measurement of analgesic effect, carrageenan inflammatory pain model, hot plate; type: in vivo; conditions: intragastric suspension 15 mg/mL, 1 hour before modeling, FIG. 6
Procedure: Male SD rats (6 to 8 weeks old) (SPF (Beijing) Biotechnology Co., Ltd.) were subcutaneously injected with 50 μL of 1% λ-carrageenan saline solution at planta to prepare an inflammatory pain model (Rose T E, Morisseau C, Liu J Y, et al. 1-Aryl-3-(1-acylpiperidin-4-yl)urea inhibitors of human and murine soluble epoxide hydrolase: structure-activity relationships, pharmacokinetics, and reduction of inflammatory pain. J Med Chem, 2010, 53(19): 7067-7075). The compounds of Examples 12 and 40 were added to 0.5% sodium carboxymethylcellulose solution and ground to prepare a suspension with a concentration of 15 mg/mL. 1 hour before modeling, the rats were intragastrically administrated. The changes in the paw withdrawal time of rats were measured with a hot plate dolorimeter.

[9] = human recombinant sEH, PHOME substrate, read-out: IC50
[10] = compound 0.1 μM, human recombinant sEH, PHOME substrate, 37° C. 15 min

SMILES	IC50 [1, 9] [nM]	inhibition at 0.1 µM [2, 10] [%]	IC50 [1] [nM]	other results
CCc1ccc(NC(=O)N(CCN2CCOCC2)c2ccc3nc(N)sc3c2)cc1 [Example 18, 1-(2-aminobenzo[d]thiazol-6-yl)-1-[2-(4-morpholinyl)ethyl]-3-(4-ethylphenyl)urea]	–	84.7	6.7	carrageenan-induced paw swelling (paw thickness) [4]: significantly inhibit; effect on paw swelling compared with celecoxib [4]: better than that of celecoxib
O=C(Cc1ccccc1)Nc1nc2ccc(N(CCN3CCOCC3)C(=O)Nc3ccc(Cl)cc3)cc2s1 [Example 27, 1-(2-phenylacetamidobenzo[d]thiazol-6-yl)-1-[2-(4-morpholinyl)ethyl]-3-(4-chlorophenyl)urea]	–	79.4	0.02	carrageenan-induced paw swelling (paw thickness) [4]: significantly inhibit; effect on paw swelling compared with celecoxib [4]: better than that of celecoxib
Nc1nc2ccc(N(CCN3CCOCC3)C(=O)Nc3ccc(Cl)cc3)cc2s1 [Example 12, 1-(2-aminobenzo[d]thiazol-6-yl)-1-[2-(4-morpholinyl)ethyl]-3-(4-chlorophenyl)urea]	4.1	–	–	blood glucose [5]: significantly lower than that of the model group; glucose tolerance [5]: higher than that of the model group; immobility time in forced swimming [6]: significantly reduce the immobility time; carrageenan-induced paw swelling (paw thickness) [4]: significantly inhibit; effect on paw swelling compared with celecoxib [4]: better than that of celecoxib; inhibition at 0.1 µM [2]: 68.7%; Water content in brain (%) ([7]; 30 mg/kg intraperitoneal, 72 hours before traumatic brain injury, * p < 0.05 vs blank solvent group): 79.46 ± 0.68 * %; EB content (μg/g) ([7]; 30 mg/kg intraperitoneal, Evans blue in brain, 24 hours after model, * p < 0.05 vs blank solvent group): 25.23 ± 1.63 * μg/g; water content in brain (in words) ([7]; traumatic brain injury rats, text summary of Table 4): reduce the water content; paw withdrawal time in hot plate dolorimeter [8]: significantly prolong the paw withdrawal time
O=C(Nc1ccc(Cl)cc1)Nc1ccc2nc(NC(=O)Nc3ccc(Cl)cc3)sc2c1 [Example 7, 1,1′-(benzo[d]thiazol-2,6-diyl)bis[3-(4-chlorophenyl)urea]]	9.2	59.9	–	–
Nc1nc2ccc(NC(=O)NC34C[C@H]5C[C@@H](C3)C[C@@H](C4)C5)cc2s1 [Example 4, 1-(2-aminobenzo[d]thiazol-6-yl)-3-[(3s,5s,7s)-adamantan-1-yl]urea]	–	77.3	122	–
Nc1nc2ccc(NC(=O)Nc3ccc(Cl)cc3)cc2s1 [Example 1, 1-(2-aminobenzo[d]thiazol-6-yl)-3-(4-chlorophenyl)urea]	–	76.1	4.8	–

Now from value to compound, other results behind:

IC50 [1, 9] [nM]	inhibition at 0.1 µM [2, 10] [%]	SMILES	IC50 [1] [nM]	other results
0.25	79.7	Nc1nc2ccc(N(CCN3CCOCC3)C(=O)Nc3ccc(F)c(Br)c3)cc2s1 [Example 16, 1-(2-aminobenzo[d]thiazol-6-yl)-1-[2-(4-morpholinyl)ethyl]-3-(3-bromo-4-fluorophenyl)urea]	–	level of EETs in mouse kidney tissue ([3]; FIG. 1): maintain the level of EETs; collagen deposition ([3]; FIG. 2): reduce the collagen deposition; fibrotic areas ([3]; FIG. 2): decrease the fibrotic areas
27.1	70.4	CN(C)CCN(C(=O)Nc1ccc(Cl)cc1)c1ccc2nc(N)sc2c1 [Example 25, 1-(2-aminobenzo[d]thiazol-6-yl)-1-[2-(N,N-dimethylamino)ethyl]-3-(4-chlorophenyl)urea]	–	–
1.9	27.5	CC(=O)Nc1nc2ccc(N(CCN3CCOCC3)C(=O)Nc3ccc(Cl)cc3)cc2s1 [Example 30, 1-(2-acetamidobenzo[d]thiazol-6-yl)-1-[2-(4-morpholinyl)ethyl]-3-(4-chlorophenyl)urea]	–	–
2.8	63.9	Nc1nc2ccc(N(CCN3CCOCC3)C(=O)Nc3ccc(C(F)(F)F)cc3)cc2s1 [Example 13, 1-(2-aminobenzo[d]thiazol-6-yl)-1-[2-(4-morpholinyl)ethyl]-3-(4-trifluoromethylphenyl)urea]	–	–
2.6	69	CCOC(=O)CNc1nc2ccc(N(CCN3CCOCC3)C(=O)Nc3ccc(Cl)cc3)cc2s1 [Example 29]	–	–
